| Compound | melting point |
| --- | --- |
| CC(C)NCc1ccc(C(=O)Nc2nc(-c3ccccc3)c(-c3ccc(=O)n(C(C)C)n3)s2)cc1 [Example 152, 4-[(Isopropylamino)methyl]-N-[5-(1-isopropyl-6-oxo-1,6-dihydro-3-pyridazinyl)-4-phenyl-1,3-thiazol-2-yl]benzamide] | 139 to 141 °C |
| NC(=O)c1nc(-c2ccccc2)c(-c2ccc(=O)[nH]n2)s1 [Example 158, 5-(6-oxo-1,6-dihydro-3-pyridazinyl)-4-phenyl-1,3-thiazole-2-carboxamide] | > 250 °C |
| Cn1nc(-c2sc(C(N)=O)nc2-c2ccccc2)ccc1=O [Example 159, 5-(1-methyl-6-oxo-1,6-dihydro-3-pyridazinyl)-4-phenyl-1,3-thiazole-2-carboxamide] | 231 to 232 °C |
| CCn1nc(-c2sc(C(N)=O)nc2-c2ccccc2)ccc1=O [Example 160, 5-(1-Ethyl-6-oxo-1,6-dihydro-3-pyridazinyl)-4-phenyl-1,3-thiazole-2-carboxamide] | 231 to 232.5 °C |
| CC(C)n1nc(-c2sc(C(N)=O)nc2-c2ccccc2)ccc1=O [Example 161, 5-(1-Isopropyl-6-oxo-1,6-dihydro-3-pyridazinyl)-4-phenyl-1,3-thiazole-2-carboxamide] | 222 to 223 °C |
| C=CCn1nc(-c2sc(C(N)=O)nc2-c2ccccc2)ccc1=O [Example 162, 5-(1-Allyl-6-oxo-1,6-dihydro-3-pyridazinyl)-4-phenyl-1,3-thiazole-2-carboxamide] | 198 to 199.5 °C |
| CC(C)n1nc(-c2sc(C(N)=O)nc2-c2ccccc2F)ccc1=O [Example 163, 4-(2-Fluorophenyl)-5-(1-isopropyl-6-oxo-1,6-dihydro-3-pyridazinyl)-1,3-thiazole-2-carboxamide] | 213 to 215 °C |
| CC(C)n1nc(-c2sc(C(N)=O)nc2-c2cccc(F)c2)ccc1=O [Example 164, 4-(3-Fluorophenyl)-5-(1-isopropyl-6-oxo-1,6-dihydro-3-pyridazinyl)-1,3-thiazole-2-carboxamide] | 248 to 250 °C |
| CC(C)n1nc(-c2sc(C(N)=O)nc2-c2ccc(F)cc2)ccc1=O [Example 165, 4-(4-Fluorophenyl)-5-(1-isopropyl-6-oxo-1,6-dihydro-3-pyridazinyl)-1,3-thiazole-2-carboxamide] | 226.5 to 227.5 °C |
| CC(C)n1nc(-c2sc(C(N)=O)nc2-c2cccc(Cl)c2)ccc1=O [Example 166, 4-(3-Chlorophenyl)-5-(1-isopropyl-6-oxo-1,6-dihydro-3-pyridazinyl)-1,3-thiazole-2-carboxamide] | 232 to 234.5 °C |
| CCCn1nc(-c2sc(C(N)=O)nc2-c2ccccc2)ccc1=O [Example 167, 5-(6-oxo-1-propyl-1,6-dihydro-3-pyridazinyl)-4-phenyl-1,3-thiazole-2-carboxamide] | 201 to 202 °C |
| COCCn1nc(-c2sc(C(N)=O)nc2-c2ccccc2)ccc1=O [Example 168, 5-[1-(2-Methoxyethyl)-6-oxo-1,6-dihydro-3-pyridazinyl]-4-phenyl-1,3-thiazole-2-carboxamide] | 198 to 199.5 °C |
| CCCNC(=O)c1nc(-c2ccccc2)c(-c2ccc(=O)[nH]n2)s1 [Example 169, 5-(6-oxo-1,6-dihydro-3-pyridazinyl)-4-phenyl-N-propyl-1,3-thiazole-2-carboxamide] | 232 to 233 °C |
| CCCNC(=O)c1nc(-c2ccccc2)c(-c2ccc(=O)n(C)n2)s1 [Example 170, 5-(1-methyl-6-oxo-1,6-dihydro-3-pyridazinyl)-4-phenyl-N-propyl-1,3-thiazole-2-carboxamide] | 108 to 109 °C |
| CCCNC(=O)c1nc(-c2ccccc2)c(-c2ccc(=O)n(CC)n2)s1 [Example 171, 5-(1-ethyl-6-oxo-1,6-dihydro-3-pyridazinyl)-4-phenyl-N-propyl-1,3-thiazole-2-carboxamide] | 106.5 to 107.5 °C |
| CCCNC(=O)c1nc(-c2ccccc2)c(-c2ccc(=O)n(CCC)n2)s1 [Example 172, 5-(6-oxo-1-propyl-1,6-dihydro-3-pyridazinyl)-4-phenyl-N-propyl-1,3-thiazole-2-carboxamide] | 121 to 122 °C |
| CCCNC(=O)c1nc(-c2ccccc2)c(-c2ccc(=O)n(C(C)C)n2)s1 [Example 173, 5-(1-isopropyl-6-oxo-1,6-dihydro-3-pyridazinyl)-4-phenyl-N-propyl-1,3-thiazole-2-carboxamide] | 141 to 142 °C |
| CCCNC(=O)c1nc(-c2ccccc2)c(-c2ccc(=O)n(Cc3ccccc3)n2)s1 [Example 174, 5-(1-benzyl-6-oxo-1,6-dihydro-3-pyridazinyl)-4-phenyl-N-propyl-1,3-thiazole-2-carboxamide] | 120 to 121 °C |
| CCCNC(=O)c1nc(-c2ccc(F)cc2)c(-c2ccc(=O)n(C(C)C)n2)s1 [Example 175, 4-(4-fluorophenyl)-5-(1-isopropyl-6-oxo-1,6-dihydro-3-pyridazinyl)-N-propyl-1,3-thiazole-2-carboxamide] | 146.5 to 147.5 °C |

| Compound | melting point |
| --- | --- |
| CC(C)NC(=O)c1nc(-c2ccccc2)c(-c2ccc(=O)[nH]n2)s1 [Example 176, N-isopropyl-5-(6-oxo-1,6-dihydro-3-pyridazinyl)-4-phenyl-1,3-thiazole-2-carboxamide] | > 250 °C |
| CC(C)NC(=O)c1nc(-c2ccccc2)c(-c2ccc(=O)n(C)n2)s1 [Example 177, N-isopropyl-5-(1-methyl-6-oxo-1,6-dihydro-3-pyridazinyl)-4-phenyl-1,3-thiazole-2-carboxamide] | 154 to 154.5 °C |
| CCn1nc(-c2sc(C(=O)NC(C)C)nc2-c2ccccc2)ccc1=O [Example 178, 5-(1-ethyl-6-oxo-1,6-dihydro-3-pyridazinyl)-N-isopropyl-4-phenyl-1,3-thiazole-2-carboxamide] | 152.5 to 153 °C |
| CCCn1nc(-c2sc(C(=O)NC(C)C)nc2-c2ccccc2)ccc1=O [Example 179, N-isopropyl-5-(6-oxo-1-propyl-1,6-dihydro-3-pyridazinyl)-4-phenyl-1,3-thiazole-2-carboxamide] | 146.5 to 147.5 °C |
| CC(C)NC(=O)c1nc(-c2ccccc2)c(-c2ccc(=O)n(C(C)C)n2)s1 [Example 180, N-isopropyl-5-(1-isopropyl-6-oxo-1,6-dihydro-3-pyridazinyl)-4-phenyl-1,3-thiazole-2-carboxamide] | 131 to 132.5 °C |
| C=CCn1nc(-c2sc(C(=O)NC(C)C)nc2-c2ccccc2)ccc1=O [Example 181, 5-(1-allyl-6-oxo-1,6-dihydro-3-pyridazinyl)-N-isopropyl-4-phenyl-1,3-thiazole-2-carboxamide] | 166 to 167 °C |
| CC(C)NC(=O)c1nc(-c2ccccc2)c(-c2ccc(=O)n(Cc3ccccc3)n2)s1 [Example 182, 5-(1-benzyl-6-oxo-1,6-dihydro-3-pyridazinyl)-N-isopropyl-4-phenyl-1,3-thiazole-2-carboxamide] | 163.5 to 165 °C |
| COCCn1nc(-c2sc(C(=O)NC(C)C)nc2-c2ccccc2)ccc1=O [Example 183, N-isopropyl-5-[1-(2-methoxyethyl)-6-oxo-1,6-dihydro-3-pyridazinyl]-4-phenyl-1,3-thiazole-2-carboxamide] | 172 to 172.5 °C |
| CC(C)NC(=O)c1nc(-c2ccccc2F)c(-c2ccc(=O)n(C(C)C)n2)s1 [Example 184, 4-(2-fluorophenyl)-N-isopropyl-5-(1-isopropyl-6-oxo-1,6-dihydro-3-pyridazinyl)-1,3-thiazole-2-carboxamide] | 129 to 130.5 °C |
| CC(C)NC(=O)c1nc(-c2cccc(F)c2)c(-c2ccc(=O)n(C(C)C)n2)s1 [Example 185, 4-(3-fluorophenyl)-N-isopropyl-5-(1-isopropyl-6-oxo-1,6-dihydro-3-pyridazinyl)-1,3-thiazole-2-carboxamide] | 103.5 to 105.5 °C |
| CC(C)NC(=O)c1nc(-c2ccc(F)cc2)c(-c2ccc(=O)n(C(C)C)n2)s1 [Example 186, 4-(4-fluorophenyl)-N-isopropyl-5-(1-isopropyl-6-oxo-1,6-dihydro-3-pyridazinyl)-1,3-thiazole-2-carboxamide] | 122 to 123.5 °C |
| CC(C)NC(=O)c1nc(-c2cccc(Cl)c2)c(-c2ccc(=O)n(C(C)C)n2)s1 [Example 187, 4-(3-chlorophenyl)-N-isopropyl-5-(1-isopropyl-6-oxo-1,6-dihydro-3-pyridazinyl)-1,3-thiazole-2-carboxamide] | 105 to 106 °C |
| O=C(NC1CC1)c1nc(-c2ccccc2)c(-c2ccc(=O)[nH]n2)s1 [Example 188, N-cyclopropyl-5-(6-oxo-1,6-dihydro-3-pyridazinyl)-4-phenyl-1,3-thiazole-2-carboxamide] | > 250 °C |
| Cn1nc(-c2sc(C(=O)NC3CC3)nc2-c2ccccc2)ccc1=O [Example 189, N-cyclopropyl-5-(1-methyl-6-oxo-1,6-dihydro-3-pyridazinyl)-4-phenyl-1,3-thiazole-2-carboxamide] | 163 to 164 °C |
| CCn1nc(-c2sc(C(=O)NC3CC3)nc2-c2ccccc2)ccc1=O [Example 190, N-cyclopropyl-5-(1-ethyl-6-oxo-1,6-dihydro-3-pyridazinyl)-4-phenyl-1,3-thiazole-2-carboxamide] | 144 to 145 °C |
| CCCn1nc(-c2sc(C(=O)NC3CC3)nc2-c2ccccc2)ccc1=O [Example 191, N-cyclopropyl-5-(6-oxo-1-propyl-1,6-dihydro-3-pyridazinyl)-4-phenyl-1,3-thiazole-2-carboxamide] | 146 to 147 °C |
| CC(C)n1nc(-c2sc(C(=O)NC3CC3)nc2-c2ccccc2)ccc1=O [Example 192, N-cyclopropyl-5-(1-isopropyl-6-oxo-1,6-dihydro-3-pyridazinyl)-4-phenyl-1,3-thiazole-2-carboxamide] | 127 to 128 °C |
| C=CCn1nc([SH]2C=C(c3ccccc3)N=C2C(=O)NC2CC2)ccc1=O (stereo not drawn) [Example 193, S-(1-allyl-6-oxo-1,6-dihydro-3-pyridazinyl)-N-cyclopropyl-4-phenyl-1,3-thiazole-2-carboxamide] | 167.5 to 168.5 °C |
| O=C(NC1CC1)c1nc(-c2ccccc2)c(-c2ccc(=O)n(Cc3ccccc3)n2)s1 [Example 194, 5-(1-benzyl-6-oxo-1,6-dihydro-3-pyridazinyl)-N-cyclopropyl-4-phenyl-1,3-thiazole-2-carboxamide] | 151 to 152.5 °C |
